The values below come from patent publication US12509457B2, “Bicyclic nitrogen containing heterocycles as inhibitors of salt-induced kinase SIK2” (priority 2019, dated 2025).

Like-named read-outs stand apart in the source and are kept apart here. Some results are limits rather than exact numbers.

Assay type in all cases: biochemical
Assay [1] deals with SIK1 (Homo sapiens, UniProt P57059). As to the kind of experiment: SIK1 kinase assay, IMAP fluorescence polarization. To be noted: 50 or 100 μM ATP; average; read-out: SIK1-AVERAGE Ki.
Assay [2] addresses EPHA2 (Homo sapiens, UniProt P29317). As to the kind of experiment: EPHA2 kinase assay, IMAP fluorescence polarization.
Assay [3] has as its target Src (Homo sapiens, UniProt P12931). As to the kind of experiment: Src kinase assay, IMAP fluorescence polarization. To be noted: 50 or 100 μM ATP; average; read-out: Src-AVERAGE Ki.
Assay [4] concerns the target SIK2 (Homo sapiens, UniProt Q9H0K1). As to the kind of experiment: SIK2 kinase assay, IMAP fluorescence polarization. To be noted: 50 or 100 μM ATP; average; read-out: SIK2-AVERAGE Ki.
Assay [5] addresses Abl (Homo sapiens, UniProt P00519). As to the kind of experiment: Abl kinase assay, IMAP fluorescence polarization. To be noted: 50 or 100 μM ATP; average; read-out: Abl-AVERAGE Ki.
In assay [6] the target is SIK3 (Homo sapiens, UniProt Q9Y2K2). As to the kind of experiment: SIK3 kinase assay, IMAP fluorescence polarization. Conditions: 50 or 100 μM ATP; average; read-out: SIK3-AVERAGE Ki.
SIK3, sequence (Q9Y2K2 whole entry): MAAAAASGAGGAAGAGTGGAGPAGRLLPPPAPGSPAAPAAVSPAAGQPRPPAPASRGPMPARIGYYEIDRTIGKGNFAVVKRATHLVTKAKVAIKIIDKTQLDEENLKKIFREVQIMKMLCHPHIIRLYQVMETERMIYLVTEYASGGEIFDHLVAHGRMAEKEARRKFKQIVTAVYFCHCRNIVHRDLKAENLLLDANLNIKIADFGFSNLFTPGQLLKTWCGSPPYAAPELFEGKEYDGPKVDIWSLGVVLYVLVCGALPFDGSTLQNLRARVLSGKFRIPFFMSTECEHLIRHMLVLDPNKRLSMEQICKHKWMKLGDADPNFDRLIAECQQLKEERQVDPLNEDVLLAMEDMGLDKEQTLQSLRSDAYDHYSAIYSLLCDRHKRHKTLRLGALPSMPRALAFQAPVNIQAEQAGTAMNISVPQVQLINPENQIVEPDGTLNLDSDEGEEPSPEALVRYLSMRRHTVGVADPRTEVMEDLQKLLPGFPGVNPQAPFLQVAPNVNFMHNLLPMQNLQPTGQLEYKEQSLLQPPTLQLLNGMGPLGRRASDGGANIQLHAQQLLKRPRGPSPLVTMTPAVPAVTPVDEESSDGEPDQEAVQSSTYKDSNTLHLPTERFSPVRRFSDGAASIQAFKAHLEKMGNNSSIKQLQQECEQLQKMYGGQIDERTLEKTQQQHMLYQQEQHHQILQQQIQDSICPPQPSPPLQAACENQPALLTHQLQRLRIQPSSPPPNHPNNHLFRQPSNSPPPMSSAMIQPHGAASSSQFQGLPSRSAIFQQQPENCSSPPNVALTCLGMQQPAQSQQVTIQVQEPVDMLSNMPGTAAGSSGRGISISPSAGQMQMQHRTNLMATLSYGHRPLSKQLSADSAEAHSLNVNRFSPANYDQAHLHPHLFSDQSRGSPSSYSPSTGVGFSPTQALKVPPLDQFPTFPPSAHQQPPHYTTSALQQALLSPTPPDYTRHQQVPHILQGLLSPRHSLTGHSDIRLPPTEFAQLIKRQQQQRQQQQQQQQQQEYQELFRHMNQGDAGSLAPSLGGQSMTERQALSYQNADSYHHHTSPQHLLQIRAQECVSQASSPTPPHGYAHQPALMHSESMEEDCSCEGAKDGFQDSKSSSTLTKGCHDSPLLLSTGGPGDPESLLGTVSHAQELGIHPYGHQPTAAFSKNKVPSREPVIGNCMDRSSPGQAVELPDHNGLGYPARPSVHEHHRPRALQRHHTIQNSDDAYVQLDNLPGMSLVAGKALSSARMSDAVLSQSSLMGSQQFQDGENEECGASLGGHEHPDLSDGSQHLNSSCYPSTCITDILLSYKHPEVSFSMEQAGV

SIK2, sequence (Q9H0K1 whole entry): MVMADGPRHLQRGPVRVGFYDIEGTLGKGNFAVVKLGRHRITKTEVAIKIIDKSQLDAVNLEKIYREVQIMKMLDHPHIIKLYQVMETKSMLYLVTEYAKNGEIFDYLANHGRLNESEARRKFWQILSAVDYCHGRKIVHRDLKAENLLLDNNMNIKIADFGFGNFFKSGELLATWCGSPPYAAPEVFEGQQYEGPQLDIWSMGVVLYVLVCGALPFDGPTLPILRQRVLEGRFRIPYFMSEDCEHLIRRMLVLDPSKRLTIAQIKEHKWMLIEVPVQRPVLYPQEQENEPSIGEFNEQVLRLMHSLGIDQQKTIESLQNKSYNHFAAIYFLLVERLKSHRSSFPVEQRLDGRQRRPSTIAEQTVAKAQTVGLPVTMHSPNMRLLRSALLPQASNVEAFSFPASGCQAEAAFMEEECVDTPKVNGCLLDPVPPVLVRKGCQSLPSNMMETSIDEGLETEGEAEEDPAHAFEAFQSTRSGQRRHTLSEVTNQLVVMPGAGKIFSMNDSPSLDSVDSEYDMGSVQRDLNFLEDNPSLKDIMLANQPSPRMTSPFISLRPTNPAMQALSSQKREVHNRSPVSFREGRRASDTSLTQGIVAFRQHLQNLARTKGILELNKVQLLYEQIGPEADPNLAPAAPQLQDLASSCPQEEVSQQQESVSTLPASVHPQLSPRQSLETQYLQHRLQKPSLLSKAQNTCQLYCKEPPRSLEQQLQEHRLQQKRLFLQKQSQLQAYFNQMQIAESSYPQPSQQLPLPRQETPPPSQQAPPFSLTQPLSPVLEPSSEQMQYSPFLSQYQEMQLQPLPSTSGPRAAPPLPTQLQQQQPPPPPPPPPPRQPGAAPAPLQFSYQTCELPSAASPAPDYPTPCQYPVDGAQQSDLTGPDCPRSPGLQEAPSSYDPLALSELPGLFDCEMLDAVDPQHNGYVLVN
SIK1, sequence (P57059 whole entry): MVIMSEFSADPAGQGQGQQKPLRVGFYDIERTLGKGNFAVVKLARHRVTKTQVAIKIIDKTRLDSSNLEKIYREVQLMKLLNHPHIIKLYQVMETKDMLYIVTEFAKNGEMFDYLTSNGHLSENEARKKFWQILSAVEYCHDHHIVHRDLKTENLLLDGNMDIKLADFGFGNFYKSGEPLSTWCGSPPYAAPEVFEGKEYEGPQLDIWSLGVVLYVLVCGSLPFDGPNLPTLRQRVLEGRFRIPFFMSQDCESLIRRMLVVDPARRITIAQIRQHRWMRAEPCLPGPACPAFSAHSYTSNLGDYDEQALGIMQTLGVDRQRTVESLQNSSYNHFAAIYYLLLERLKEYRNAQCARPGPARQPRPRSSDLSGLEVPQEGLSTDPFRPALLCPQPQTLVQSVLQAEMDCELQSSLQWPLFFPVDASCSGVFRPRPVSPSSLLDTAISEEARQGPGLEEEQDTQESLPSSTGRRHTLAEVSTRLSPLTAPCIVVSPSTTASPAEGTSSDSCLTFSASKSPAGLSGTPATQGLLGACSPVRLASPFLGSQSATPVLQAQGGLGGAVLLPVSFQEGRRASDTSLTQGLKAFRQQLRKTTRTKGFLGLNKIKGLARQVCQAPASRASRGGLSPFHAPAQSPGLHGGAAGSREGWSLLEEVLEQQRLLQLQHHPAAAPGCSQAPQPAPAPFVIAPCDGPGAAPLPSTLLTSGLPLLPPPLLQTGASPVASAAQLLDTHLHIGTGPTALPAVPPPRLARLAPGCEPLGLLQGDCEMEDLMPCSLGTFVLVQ
Src, sequence (P12931 whole entry): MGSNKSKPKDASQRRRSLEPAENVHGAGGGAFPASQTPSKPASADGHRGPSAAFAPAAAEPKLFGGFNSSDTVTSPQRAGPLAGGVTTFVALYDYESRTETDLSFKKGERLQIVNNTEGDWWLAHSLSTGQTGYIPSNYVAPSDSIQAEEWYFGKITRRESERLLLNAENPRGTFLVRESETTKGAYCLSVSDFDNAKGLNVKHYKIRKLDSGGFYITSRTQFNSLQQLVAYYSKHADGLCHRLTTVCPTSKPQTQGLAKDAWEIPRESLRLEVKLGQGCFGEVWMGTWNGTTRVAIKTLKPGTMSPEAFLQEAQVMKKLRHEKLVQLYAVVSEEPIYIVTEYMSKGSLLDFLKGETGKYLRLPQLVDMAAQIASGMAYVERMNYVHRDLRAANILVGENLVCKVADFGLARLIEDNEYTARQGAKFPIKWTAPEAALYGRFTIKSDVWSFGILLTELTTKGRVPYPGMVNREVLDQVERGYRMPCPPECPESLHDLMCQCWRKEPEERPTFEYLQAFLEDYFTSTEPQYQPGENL
Abl, sequence (P00519 whole entry): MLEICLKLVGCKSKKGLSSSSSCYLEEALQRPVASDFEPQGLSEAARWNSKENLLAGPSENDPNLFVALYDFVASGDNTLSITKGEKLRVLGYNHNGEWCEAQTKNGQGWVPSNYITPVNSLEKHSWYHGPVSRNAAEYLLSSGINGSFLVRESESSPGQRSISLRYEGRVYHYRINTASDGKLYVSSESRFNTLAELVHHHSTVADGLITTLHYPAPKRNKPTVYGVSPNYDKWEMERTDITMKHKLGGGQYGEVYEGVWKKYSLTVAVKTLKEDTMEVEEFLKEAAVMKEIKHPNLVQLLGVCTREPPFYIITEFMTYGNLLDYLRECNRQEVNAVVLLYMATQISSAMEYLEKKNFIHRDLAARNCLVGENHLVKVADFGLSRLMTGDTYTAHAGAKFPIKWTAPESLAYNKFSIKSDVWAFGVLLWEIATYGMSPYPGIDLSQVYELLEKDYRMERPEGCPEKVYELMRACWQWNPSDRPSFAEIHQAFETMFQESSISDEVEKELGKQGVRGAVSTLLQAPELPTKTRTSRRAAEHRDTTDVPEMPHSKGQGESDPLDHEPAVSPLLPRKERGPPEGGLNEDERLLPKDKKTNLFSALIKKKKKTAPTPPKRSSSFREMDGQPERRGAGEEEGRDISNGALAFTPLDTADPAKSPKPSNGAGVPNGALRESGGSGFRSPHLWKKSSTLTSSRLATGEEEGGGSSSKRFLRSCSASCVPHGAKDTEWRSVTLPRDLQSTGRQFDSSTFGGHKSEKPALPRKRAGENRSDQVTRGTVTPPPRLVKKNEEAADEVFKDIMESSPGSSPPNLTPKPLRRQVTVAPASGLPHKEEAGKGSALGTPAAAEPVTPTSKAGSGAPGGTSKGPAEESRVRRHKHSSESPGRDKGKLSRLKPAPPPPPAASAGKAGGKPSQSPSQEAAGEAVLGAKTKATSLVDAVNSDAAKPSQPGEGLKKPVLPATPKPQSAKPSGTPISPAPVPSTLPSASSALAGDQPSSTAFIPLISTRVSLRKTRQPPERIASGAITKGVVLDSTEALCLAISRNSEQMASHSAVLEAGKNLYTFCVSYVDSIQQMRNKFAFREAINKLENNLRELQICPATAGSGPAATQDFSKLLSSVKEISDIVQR

`Cc1cccc(F)c1N1Cc2cnc(N)cc2N([C@@H]2CCCN(C)C2)C1=O` [Example 81, 7-amino-3-(2-fluoro-6-methyl-phenyl)-1-[(3R)-1-methyl-3-piperidyl]-4H-pyrido[4,3-d]pyrimidin-2-one]: the Ki turned out to be 0.84 nM in assay [1]; 45.2 nM in assay [2] (50 or 100 μM ATP, average); 252 nM in assay [3]; 0.522 nM in assay [4]; 67.4 nM in assay [5]; 5.04 nM in assay [6].

As for `Cc1cccc(F)c1N1Cc2cnc(N)nc2N([C@@H]2CCN(C)C2)C1=O` [Example 31, 7-amino-3-(2-fluoro-6-methyl-phenyl)-1-[(3R)-1-methylpyrrolidin-3-yl]-4H-pyrimido[4,5-d]pyrimidin-2-one], the Ki in assay [1] was 8.28 nM; in assay [2], 228 nM; in assay [3], over 10000 nM; in assay [4], 4.79 nM; in assay [5], 522 nM; in assay [6], 62.6 nM.

For `Cc1cccc(F)c1N1Cc2cnc(N)nc2N([C@H]2CC[C@H](N(C)C)CC2)C1=O` [Example 45, trans-7-Amino-1-[4-(dimethylamino)cyclohexyl]-3-(2-fluoro-6-methyl-phenyl)-4H-pyrimido[4,5-d]pyrimidin-2-one], the Ki amounted to 0.749 nM in assay [1]; 34.2 nM in assay [2] (50 or 100 μM ATP, average); 55.5 nM in assay [3]; 0.244 nM in assay [4]; 15.7 nM in assay [5]; 0.992 nM in assay [6].

As for `Cc1cccc(F)c1N1Cc2cnc(N)cc2N([C@H]2CCNC2)C1=O` [Example 78, 7-amino-3-(2-fluoro-6-methyl-phenyl)-1-[(3S)-pyrrolidin-3-yl]-4H-pyrido[4,3-d]pyrimidin-2-one], the Ki was 1.28 nM in assay [1]; over 1000 nM in assay [2] (50 or 100 μM ATP, average); over 1000 nM in assay [3]; 1.62 nM in assay [4]; over 1000 nM in assay [5]; 15.4 nM in assay [6].

Take `Cc1cccc(F)c1N1Cc2cnc(N)cc2N([C@H]2CCCN(C)C2)C1=O` [Example 82, 7-amino-3-(2-fluoro-6-methyl-phenyl)-1-[(3S)-1-methyl-3-piperidyl]-4H-pyrido[4,3-d]pyrimidin-2-one]: the Ki was 1 nM in assay [1]; 54.5 nM in assay [2] (50 or 100 μM ATP, average); 82.7 nM in assay [3]; 0.498 nM in assay [4]; over 1000 nM in assay [5]; 5.89 nM in assay [6].

Turning to `Cc1cccc(F)c1N1Cc2cnc(N)nc2N(C2CNC2)C1=O` [Example 13, 7-Amino-1-(azetidin-3-yl)-3-(2-fluoro-6-methyl-phenyl)-4H-pyrimido[4,5-d]pyrimidin-2-one], the Ki in assay [1] is 9.71 nM; in assay [2] (50 or 100 μM ATP, average), 371 nM; in assay [3] it was 400 nM; in assay [4], 1.77 nM; in assay [5], 36.4 nM; in assay [6] it was 10.9 nM.

With `Cc1cccc(F)c1N1Cc2cnc(N)cc2N([C@H]2CC[C@@H](N(C)C)CC2)C1=O` [Example 46, cis-7-Amino-1-[4-(dimethylamino)cyclohexyl]-3-(2-fluoro-6-methyl-phenyl)-4H-pyrido[4,3-d]pyrimidin-2-one], the Ki in assay [1] amounted to 0.384 nM; in assay [2] (50 or 100 μM ATP, average) it was 84.4 nM; in assay [3], 163 nM; in assay [4], 0.232 nM; in assay [5] it was 43 nM; in assay [6], 1.19 nM.

Turning to `Cc1cccc(Cl)c1N1Cc2cnc(N)nc2N(C2CN(C)C2)C1=O` [Example 23, 7-amino-3-(2-chloro-6-methyl-phenyl)-1-(1-methylazetidin-3-yl)-4H-pyrimido[4,5-d]pyrimidin-2-one], the Ki in assay [1] was 28.6 nM; in assay [2] (50 or 100 μM ATP, average) it was 162 nM; in assay [3], 550 nM; in assay [4], 14.2 nM; in assay [5] it was over 10000 nM; in assay [6] it was 54.7 nM.

For the compound `CN[C@H]1CC[C@H](N2C(=O)N(c3c(C)cccc3F)Cc3cnc(N)nc32)CC1` [Example 61, trans-7-amino-3-(2-fluoro-6-methyl-phenyl)-1-[4-(methylamino)cyclohexyl]-4H-pyrimido[4,5-d]pyrimidin-2-one], the Ki worked out at 0.171 nM in assay [1]; 19.8 nM in assay [2] (50 or 100 μM ATP, average); 36.4 nM in assay [3]; 0.101 nM in assay [4]; 28.7 nM in assay [5]; 0.28 nM in assay [6].

In the case of `Cc1cccc(F)c1N1Cc2cnc(N)nc2N([C@@H]2CCCN(C)C2)C1=O` [Example 42, 7-Amino-3-(2-fluoro-6-methyl-phenyl)-1-[(3R)-1-methyl-3-piperidyl]-4H-pyrimido[4,5-d]pyrimidin-2-one], the Ki in assay [1] is 3.24 nM; in assay [2] (50 or 100 μM ATP, average), 66.8 nM; in assay [3] it was 702 nM; in assay [4], 1.52 nM; in assay [5], 241 nM; in assay [6] it was 14 nM.
